This is an account of results in patent US6534491B2, “Preparation and use of ortho-sulfonamido bicyclic heteroaryl hydroxamic acids as matrix metalloproteinase and tace inhibitors” (priority 1996, dated 2003).

Counter-ions that a name gives are not always drawn.

Data set [1] addresses T1, MMP-13 (Homo sapiens, UniProt P45452). Nature of the data set: In vivo MMP inhibition test procedure (implanted dialysis tubing containing enzyme). On the set-up: species or system rat or mouse. The following applies: p.o. vs MMP-13.
Procedure: A 2 cm piece of dialysis tubing (molecular weight cut-off 12-14,000, 10 mm flat width) containing matrix metalloproteinase enzyme (stromelysin, collagenase or gelatinase in 0.5 mL of buffer) is implanted either ip or sc (in the back) of a rat (Sprague-Dawley, 150-200 g) or mouse (CD-1, 25-50 g) under anesthesia. Drugs are administered PO, IP, SC or IV through a canula in the jugular vein. […] Contents of the dialysis tubing is collected and enzyme activity assayed.
Enzyme reaction rates for each dialysis tube are calculated. Tubes from at least 3 different animals are used to calculate the mean±sem. Statistical significance (p<0.05) of vehicle-treated animals versus drug-treated animals is determined by analysis of variance.
Another data set has as its target TACE (Homo sapiens, UniProt P78536). Nature of the data set: TACE inhibition (fluorescent peptidyl substrate). Type of data set: biochemical. The following applies: for inhibition at 1 µM: at 1 μM concentration, read-out: TACE % inhibition.
For the next data set, the target named is MMP-9 (Homo sapiens, UniProt P14780). The data set can be described thus: MMP-9 inhibition (thiopeptide or fluorescent peptide substrate). Type of data set: biochemical. The settings on record: for IC50: read-out: MMP-9 IC50; for inhibition at 1 µM: read-out: MMP-9 % inhibition, at 1 μM concentration.
Chain of MMP-9 (P14780 94-707): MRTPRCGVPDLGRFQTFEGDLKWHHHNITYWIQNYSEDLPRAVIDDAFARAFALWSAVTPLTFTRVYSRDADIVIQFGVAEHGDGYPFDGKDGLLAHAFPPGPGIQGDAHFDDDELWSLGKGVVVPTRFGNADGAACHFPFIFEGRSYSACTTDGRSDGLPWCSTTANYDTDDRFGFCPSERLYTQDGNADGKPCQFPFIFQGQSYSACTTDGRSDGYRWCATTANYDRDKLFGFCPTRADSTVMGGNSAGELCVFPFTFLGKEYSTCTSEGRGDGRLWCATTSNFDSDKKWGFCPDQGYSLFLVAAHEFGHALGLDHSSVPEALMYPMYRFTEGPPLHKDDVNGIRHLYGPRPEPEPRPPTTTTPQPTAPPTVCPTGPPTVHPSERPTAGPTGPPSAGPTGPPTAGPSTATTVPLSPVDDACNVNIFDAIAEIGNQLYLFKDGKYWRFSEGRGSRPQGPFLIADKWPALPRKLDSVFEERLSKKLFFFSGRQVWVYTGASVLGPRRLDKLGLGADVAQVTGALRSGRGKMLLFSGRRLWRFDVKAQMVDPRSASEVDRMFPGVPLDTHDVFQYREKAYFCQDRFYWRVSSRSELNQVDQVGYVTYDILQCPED
The target of data set [2] is T1, MMP-13. Nature of the data set: MMP-13 inhibition (thiopeptide or fluorescent peptide substrate). Type of data set: biochemical. The following applies: for inhibition at 1 µM: read-out: MMP-13 % inhibition, at 1 μM concentration.
Procedure: (§1) The enzyme activity is measured by the rate of the color increase. The thiopeptide substrate is made up fresh as a 20 mM stock in 100% DMSO and the DTNB is dissolved in 100% DMSO as a 100 mM stock and stored in the dark at room temperature. Both the substrate and DTNB are diluted together to 1 mM with substrate buffer (50 mM HEPES pH 7.5, 5 mM CaCl2) before use. The stock of enzyme is diluted with buffer (50 mM HEPES, pH 7.5, 5 mM CaCl2, 0.02% Brij) to the desired final concentration.
(§2) Alternatively, a fluorescent peptide substrate is used. In this test procedure, the peptide substrate contains a fluorescent group and a quenching group. Upon cleavage of the substrate by an MMP, the fluorescence that is generated is quantitated on the fluorescence plate reader. The assay is run in HCBC assay buffer (50 mM HEPES, pH 7.0, 5 mM Ca^+2, 0.02% Brij, 0.5% Cysteine), with human recombinant MMP-1, MMP-9, or MMP-13. The substrate is dissolved in methanol and stored frozen in 1 mM aliquots. For the assay, substrate and enzymes are diluted in HCBC buffer to the desired concentrations. Compounds are added to the 96 well plate containing enzyme and the reaction is started by the addition of substrate.
(§3) For either the thiopeptide or fluorescent peptide test procedures, the slope of the line is calculated and represents the reaction rate. The linearity of the reaction rate is confirmed (r^2>0.85). The mean (x±sem) of the control rate is calculated and compared for statistical significance (p<0.05) with drug-treated rates using Dunnett's multiple comparison test.
Another data set has as its target T2, MMP-1 (Homo sapiens, UniProt P03956).
T2 sequence (P03956 100-469): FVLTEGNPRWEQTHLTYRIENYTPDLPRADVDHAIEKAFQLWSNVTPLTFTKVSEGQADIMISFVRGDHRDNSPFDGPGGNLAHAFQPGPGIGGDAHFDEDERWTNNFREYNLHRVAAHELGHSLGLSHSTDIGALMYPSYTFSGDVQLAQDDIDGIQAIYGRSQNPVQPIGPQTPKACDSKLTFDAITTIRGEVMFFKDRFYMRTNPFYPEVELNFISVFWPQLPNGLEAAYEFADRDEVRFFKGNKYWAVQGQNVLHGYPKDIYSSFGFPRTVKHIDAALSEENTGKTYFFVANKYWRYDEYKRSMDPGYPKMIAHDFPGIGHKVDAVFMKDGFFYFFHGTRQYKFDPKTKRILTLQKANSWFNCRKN
The data set can be described thus: biochemical. The settings on record: for IC50: MMP-1 IC50; for inhibition at 1 µM: read-out: MMP-1 % inhibition.

Chain of TACE (P78536 215-824): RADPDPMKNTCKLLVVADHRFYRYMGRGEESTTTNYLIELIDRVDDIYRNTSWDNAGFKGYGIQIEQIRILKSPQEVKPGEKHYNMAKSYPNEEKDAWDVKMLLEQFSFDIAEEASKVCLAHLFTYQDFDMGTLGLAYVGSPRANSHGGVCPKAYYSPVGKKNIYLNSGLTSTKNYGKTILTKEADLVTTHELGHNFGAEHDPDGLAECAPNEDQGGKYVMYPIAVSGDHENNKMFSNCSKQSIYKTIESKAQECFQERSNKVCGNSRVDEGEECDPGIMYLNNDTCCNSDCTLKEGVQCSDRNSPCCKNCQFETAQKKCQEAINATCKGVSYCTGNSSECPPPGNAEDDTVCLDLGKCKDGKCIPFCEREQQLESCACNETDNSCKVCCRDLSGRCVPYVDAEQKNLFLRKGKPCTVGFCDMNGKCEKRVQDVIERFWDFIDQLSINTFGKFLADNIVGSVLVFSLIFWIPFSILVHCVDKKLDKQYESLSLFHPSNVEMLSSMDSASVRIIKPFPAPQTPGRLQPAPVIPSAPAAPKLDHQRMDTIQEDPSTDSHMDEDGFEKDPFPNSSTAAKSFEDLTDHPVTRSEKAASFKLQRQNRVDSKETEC
Procedure for MMP-9: as §1, §2, §3
Procedure for TACE: Using 96-well black microtiter plates, each well receives a solution composed of 10 μL TACE (final concentration 1 μg/mL), 70 μL Tris buffer, pH 7.4 containing 10% glycerol (final concentration 10 mM), and 10 μL of test compound solution in DMSO (final concentration 1 μl M, DMSO concentration <1%) and incubated for 10 minutes at room temperature.
The reaction is read (excitation 340 nm, emission 420 nm) for 10 min. and the increase in fluorescence over time is plotted as a linear line. The slope of the line is calculated and represents the reaction rate.
The linearity of the reaction rate is confirmed (r^2>0.85). The mean (x±sem) of the control rate is calculated and compared for statistical significance (p<0.05) with drug-treated rates using Dunnett's multiple comparison test.

“4-{[4-(4-Chlorophenyloxy)benzenesulfonyl]methylamino}-3-methylisothiazolo[5,4-b]pyridine-5-carboxylic Acid Hydroxyamide [Example 90]”: the “in-vivo MMP % inhibition” value at MMP-13 [1] (dose 25 mg/kg) is 39% (25).
The term melting point denotes the temperature, or range, at which the solid turns liquid. With `Cc1nn(C)c2ncc(C(=O)NO)c(N(C)S(=O)(=O)c3ccc(Oc4ccncc4)cc3)c12` (as salt: hydrochloride) [91(HC1), 4-{Methyl-[4-(4-pyridinyloxy)benzenesulfonyl]amino}-1,3-dimethyl-1H-pyrazolo[3,4-b]pyridine-5-carboxylic Acid, Hydroxyamide], the melting point is 147 °C (dec.).
The same measure, in the same setting: the result for `CN(c1c(C(=O)NO)cnc2c1c(-c1ccccc1)nn2C)S(=O)(=O)c1ccc(Oc2ccncc2)cc1` (as salt: hydrochloride) [Example 93, 4-{Methyl-[4-(4-pyridinyloxy)benzenesulfonyl]amino}-1-methyl-3-phenyl-1H-pyrazolo[3,4-b]pyridine-5-carboxylic acid, Hydroxyamide] reads 195 °C (dec.); that for `Cc1noc2ncc(C(=O)NO)c(N(C)S(=O)(=O)c3ccc(Oc4ccncc4)cc3)c12` (as salt: hydrochloride) [Example 94, 4-{Methyl-[4-(4-pyridinyloxy)benzenesulfonyl]amino}-3-methylisoxazolo[5,4-b]pyridine-5-carboxylic acid, Hydroxyamide,], 170 °C (dec.); that for `COc1ccc(S(=O)(=O)N(Cc2cccnc2)c2c(C(=O)NO)cnc3snc(C)c23)cc1` (as salt: salt) [Example 86, 4-[(4-Methoxybenzenesulfonyl)pyridin-3-ylmethylamino]-3-methylisothiazolo[5,4-b]pyridine-5-carboxylic Acid, Hydroxyamide], 224 °C (dec.).
As to `COc1ccc(S(=O)(=O)N(Cc2cccnc2)c2c(C(=O)NO)cnc3onc(C)c23)cc1` (as salt: salt) [Example 87, 4-[(4-Methoxybenzenesulfonyl)pyridin-3-ylmethylamino]-3-methylisoxazolo[5,4-b]pyridine-5-carboxylic Acid, Hydroxyamide], the melting point was in the range of 212 to 215 °C.
The term inhibition denotes how much of the control response was suppressed. The IC50 is the concentration needed to halve the response being measured. As for `COc1ccc(S(=O)(=O)N(Cc2cccnc2)c2c(C(=O)NO)cnc3cc(C(F)(F)F)ccc23)cc1` [Example 16, 4-[(4-Methoxybenzenesulfonyl)-pyridin-3-ylmethylamino]-7-trifluoromethyl-quinoline-3-carboxylic acid hydroxyamide], the inhibition at 1 µM on TACE came to 36%. For the same compound, the values for the IC50 at MMP-9 and at MMP-13 [2] were 6 nM and 3 nM, respectively. Also, the “in-vivo MMP % inhibition” value on MMP-13 [1] (dose 100 mg/kg) is reported as 64% (100).
On to `CCN(c1c(C(=O)NO)cnc2ccc(C#Cc3ccccc3)cc12)S(=O)(=O)c1ccc(OC)cc1` [Example 34, 4-[Ethyl-(4-methoxy-benzenesulfonyl)-amino]-6-phenylethynyl-quinoline-3-carboxylic acid hydroxyamide], for which the IC50 stood at 20 nM against TACE, 301 nM against MMP-1, 9 nM at MMP-9 and 12 nM at MMP-13 [2].
With `COc1ccc(S(=O)(=O)N(Cc2cccnc2)c2c(C(=O)NO)cnc3c(OC)cccc23)cc1` [Example 36, 4-[(4-Methoxy-benzenesulfonyl)-pyridin-3-ylmethyl-amino]-8-methoxy-quinoline-3-carboxylic acid hydroxyamide], the IC50 is 226 nM against TACE, 2 nM on MMP-9 and 1 nM against MMP-13 [2]. The “in-vivo MMP % inhibition” value at MMP-13 [1] (dose 50 mg/kg) was 81% (50).
For the compound `COc1ccc(S(=O)(=O)N(Cc2cccnc2)c2c(C(=O)NO)cnc3c(Br)cccc23)cc1` [Example 37, 4-[(4-Methoxy-benzenesulfonyl)-pyridin-3-ylmethyl-amino]-8-bromo-quinoline-3-carboxylic acid hydroxyamide], the IC50 on TACE was found to be 124 nM; against MMP-1 it was 65 nM; at MMP-9 it was 2 nM; against MMP-13 [2], 1 nM.
Take `COc1ccc(S(=O)(=O)N(Cc2cccnc2)c2c(C(=O)NO)cnc3c(Cc4ccccc4)cccc23)cc1` [Example 38, 4-[(4-methoxy-benzenesulfonyl)-pyridin-3-ylmethylamino]-8-Benzyl-quinoline-3-carboxylic acid hydroxyamide]: the IC50 at TACE is 336 nM; on MMP-1 it was 100 nM; on MMP-9, 4 nM; against MMP-13 [2], 3 nM.
For the compound `COc1ccc(S(=O)(=O)N(Cc2cccnc2)c2c(C(=O)NO)cnc3c(-c4ccccc4)cccc23)cc1` [Example 40, 4-[(4-Methoxy-benzenesulfonyl)-pyridin-3-ylmethyl-amino]-8-phenyl-quinoline-3-carboxylic acid hydroxyamide], the IC50 turned out to be 120 nM against TACE, 151 nM on MMP-1, 3 nM at MMP-9 and 4 nM against MMP-13 [2].
As to `CCCCCCCCS(=O)(=O)N(Cc1cccnc1)c1c(C(=O)NO)cnc2cc(C(F)(F)F)ccc12` [Example 43, 4-[(Octane-1-sulfonyl)-pyridin-3-ylmethyl-amino]-7-trifluoromethyl-quinoline-3-carboxylic acid hydroxyamide], the inhibition at 1 µM at TACE worked out at 20%; at MMP-1, 43%; on MMP-9, 71%; at MMP-13 [2], 63%.
For the compound `Cc1ccc(S(=O)(=O)N(Cc2cccnc2)c2c(C(=O)NO)cnc3cc(C(F)(F)F)ccc23)cc1` [Example 44, 4-[Pyridin-3-ylmethyl-(toluene-4-sulfonyl)-amino]-7-trifluoromethyl-quinoline-3-carboxylic acid hydroxyamide], the inhibition at 1 µM is 5% at TACE, 65% on MMP-1, 59% on MMP-9 and 73% on MMP-13 [2].
With `COc1ccc(S(=O)(=O)N(Cc2ccccc2)c2c(C(=O)NO)cnc3c2c(C)nn3C)cc1` [Example 52, 4-[Benzyl-(4-methoxybenzenesulfonyl)amino]-1,3-dimethyl-1H-pyrazolo[3,4-b]pyridine-5-carboxylic acid, hydroxyamide], the 50% inhibitory concentration (IC50) is 236 nM on TACE, 45 nM against MMP-1, 2.4 nM on MMP-9 and 1.4 nM at MMP-13 [2]. Besides, the “in-vivo MMP % inhibition” value on MMP-13 [1] (dose 100 mg/kg) is 74% (100).
With `COc1ccc(S(=O)(=O)N(Cc2ccccc2)c2c(C(=O)NO)cnc3c2cnn3-c2ccccc2)cc1` [Example 62, 4-[Benzyl-(4-methoxybenzenesulfonyl)amino]-1-phenyl-1H-pyrazolo[3,4-b]pyridine-5-carboxylic acid, hydroxyamide], on TACE, the inhibition at 1 µM came to 46%. Moreover, the IC50 was determined as 1240 nM on MMP-1, 5.7 nM at MMP-9 and 23 nM against MMP-13 [2].
`COc1ccc(S(=O)(=O)N(Cc2ccccc2)c2c(C(=O)NO)cnc3c2c(C)nn3-c2ccccc2)cc1` [Example 66, 4-[Benzyl-(4-methoxybenzenesulfonyl)amino]-1-phenyl-3-methyl-1H-pyrazolo[3,4b]pyridine-5-carboxylic acid, hydroxyamide]: the values for the IC50 on MMP-1, on MMP-9 and against MMP-13 [2] were 512 nM, 0.81 nM and 0.27 nM, respectively. Also, the “in-vivo MMP % inhibition” value on MMP-13 [1] (dose 25 mg/kg) was 5% (25).
Turning to `COc1ccc(S(=O)(=O)N(Cc2cccnc2)c2c(C(=O)NO)cnc3onc(C)c23)cc1` [Example 87, 4-[(4-Methoxybenzenesulfonyl)pyridin-3-ylmethylamino]-3-methylisoxazolo[5,4-b]pyridine-5-carboxylic Acid, Hydroxyamide], the IC50 at TACE was 147 ± 5 nM; against MMP-1, 111 nM; on MMP-9 it was 8.9 nM; against MMP-13 [2], 10 nM.
Consider `COc1ccc(S(=O)(=O)N(Cc2cccnc2)c2c(C(=O)NO)cnc3cc(C)nn23)cc1` [Example 88, 7-[(4-Methoxybenzenesulfonyl)pyridin-3-ylmethylamino]-2-methylpyrazolo[1,5-a]pyrimidine-6-carboxylic Acid, Hydroxyamide], for which the inhibition at 1 µM at TACE stood at 40.5%. The IC50 is 643 nM at MMP-1, 10.4 nM on MMP-9 and 18.7 nM against MMP-13 [2].
`CN(c1c(C(=O)NO)cnc2c1c(-c1ccccc1)nn2C)S(=O)(=O)c1ccc(Oc2ccncc2)cc1` [Example 93, 4-{Methyl-[4-(4-pyridinyloxy)benzenesulfonyl]amino}-1-methyl-3-phenyl-1H-pyrazolo[3,4-b]pyridine-5-carboxylic acid, Hydroxyamide]: at TACE, the inhibition at 1 µM was 34.9%. Besides, the IC50 amounted to 8790 nM at MMP-1, 10.1 nM at MMP-9 and 3.9 nM against MMP-13 [2]. Also, at MMP-13 [1] (dose 25 mg/kg), the “in-vivo MMP % inhibition” value was 49% (25).
Taken in the same sequence, the figures for `Cc1noc2ncc(C(=O)NO)c(N(C)S(=O)(=O)c3ccc(Oc4ccncc4)cc3)c12` [Example 94, 4-{Methyl-[4-(4-pyridinyloxy)benzenesulfonyl]amino}-3-methylisoxazolo[5,4-b]pyridine-5-carboxylic acid, Hydroxyamide,] were 41.6%, 2550 nM, 3 nM, 3.2 nM and 12% (25).
